For data set [1], the system named is right eye of male Wistar rats. Nature of the data set: Wiping test (potency of pungency). Format: in vivo. How it is done:
The wiping test was performed as described by Szolcsanyl and Jansco-Gabor, Arzneim.-Forsch./Drug Res. 25, 1877 (1975). Briefly, solutions of CAP and its analogues were prepared as described above in successive tenfold dilutions. Each dilution was dropped into the right eye (vehicle being administered to the left eye as negative control) of male Wistar rats weighing 180-250 g, and the total number of protective movements (scratching, wiping of the eye with the foreleg) was counted for 30 min. Each concentration was applied to a total of 6 rats, and a dose-response curve were obtained form the mean value of each group. […] On the basis of the MPP values thus obtained, RPP (relative pain-producing potency) values were determined with respect to the pain-producing potency of CAP, which was taken as 1000.
^a) Methods are described by Szolcsanyi & JanscoGabor.

Data set [2] relates to acetic acid-induced writhing in mice. Nature of the data set: Acetic acid-induced writhing (antinociceptive test). Type of data set: in vivo, male mice (ddk strain). The settings on record: for ED50: Mus musculus, ip, 0.5 h, read-out: ED50 (95% C.L.); for Potency ratio: indomethacin 1.00. As for the experimental part:
Evaluation of antinociceptive effects Following the method described by Koster et al., Fed. proc. 18, 412 (1959), antinociceptive tests were carried out in male mice after intraperitoneal administration of NVA and its analogues. Briefly, four groups of eight male mice (ddk strain) weighing 18-22 g were brought to the laboratory on the day prior to study, and housed overnight with free access to food and water. Solutions of NVA and its analogues, as well as indomethacin were made up to 10% ethanol, 10% […] 80% saline, and then diluted with saline to the required concentrations. The test solution was administered by intraperitoneal injection with single dose of 0.2 mL (vehicle administered as control). 20 min after injection, 0.2 mL of 0.7% acetic acid was injected intraperitoneally to induce writhing. Following injection, the mice were placed […] acid injection, a writhe being defined as a sequence of arching of the back, followed by pelvic rotation and hind limb extension.
^a) Writhes were counted for 30 min after injection of acetic acid
^b) ED50 and 95% confidence limits were calculated by the
Litchfield and Wilcoxon method.
Background: In writhing tests, fewer writhes than in controls are read as antinociception.

For data set [3] the following is noted: oral; cited from earlier work.
The mark [4] stands for this setting: intraperitoneal, mice, acetic acid 20 min after injection, writhes counted for 30 min, 95% confidence limits, Litchfield and Wilcoxon.
[5] abbreviates: relative to capsaicin, taken as 1000.

Like-named read-outs stand apart in the source and are kept apart here.

As a reminder, the ED50 is the dose at which the effect has come halfway, by size or by number of responders.

Regarding `CCCCCCCCC(=O)NCc1ccc(OC(=O)CCC(=O)O)c(OC)c1` [Compound 3, N-(4-o-succinicacid-3-methoxybenzyl)-nonamide], the “pungency (in words)” value in data set [1] (rat, in vivo) is “nearly equivalent to that of NVA and CAP”. In addition, in data set [1] (rat, in vivo, 30 min), the “MPP (Moderate pain-producing potency)” value came out at 270 mg/L and the “RPP (Relative pain-producing potency)” value is recorded as 333. The ED50 in data set [2] (setting [4]) was determined as 0.06 mg/kg. In addition, the Potency ratio in data set [2] (intraperitoneal, mice) is 18.33.
For the compound `COc1ccc2c(c1)c(CC(=O)O)c(C)n2C(=O)c1ccc(Cl)cc1` [Indomethacin, reference compound], in data set [2] (setting [4]), the ED50 came out at 1.1 mg/kg.
As to `CCCCCCCCC(=O)NCc1ccc(OCC(=O)O)c(OC)c1` [Compound 5], the ED50 in data set [2] (setting [4]) is 0.04 mg/kg. Moreover, in data set [2] (intraperitoneal, mice), the “antinociceptive effect (in words)” value is “the most potent in its antinociceptive effect” and the Potency ratio came to 27.50.
For the compound `CCCCCCCCC(=O)NCc1ccc(OCC(O)CO)c(OC)c1` (stereo not shown) [Compound 4, N-(4-o-glycerol-3-methoxybenzyl)-nonamide], the ED50 in data set [2] (setting [4]) amounted to 0.09 mg/kg. Moreover, the Potency ratio in data set [2] (intraperitoneal, mice) came to 12.22.
`CCCCCCCCC(=O)NCc1ccc(O)c(OC)c1` [NVA, N-nonanoyl vanillylamide]: the “RPP (Relative pain-producing potency)” value in data set [1] (setting [5]) is listed as 409. The ED50 in data set [2] stood at 0.08 mg/kg. In data set [2] (intraperitoneal, mice), the Potency ratio stood at 13.75.
`COc1cc(CNC(=O)CCCC/C=C/C(C)C)ccc1O` [Capsaicin, trans-8-methyl-N-vanillyl-6-nonenamide]: in data set [1] (concentration inducing 32 scratchings, eye instillation, rats, 30 min), the “MPP (Moderate pain-producing potency)” value was 90 mg/L. Besides, the “median response (number of scratchings)” value in data set [1] (counted for 30 min, eye instillation, rats) came out at 32 scratchings. The “RPP (Relative pain-producing potency)” value in data set [1] (setting [5]) was found to be 1000. For the same compound, the ED50 in data set [2] (setting [4]) worked out at 0.07 mg/kg. Besides, the Potency ratio in data set [2] (intraperitoneal, mice) was determined as 15.71.
As for `CCCCCCCCC(=O)NCc1ccc(OCCO)c(OC)c1` [Compound 6, N-(4-o-glycol-3-methoxybenzyl)-nonamide], the ED50 in data set [2] (setting [4]) turned out to be 0.14 mg/kg. Besides, in data set [2] (intraperitoneal, mice), the Potency ratio came out at 7.86.
On to `CCCCCCCCC=CCCCCCCCC(=O)NCc1ccc(O)c(OC)c1` [olvanil, N-vanillyl-9-octadecenamide], for which the ED50 in data set [3] is reported as 170 mg/kg.

Source of the values: patent US5221692A, “Ether linked and relatively nonpungent analogues of N-nonanoyl vanillylamide” (National Science Council, priority 1991, dated 1993).
